Laboratory results from patent US10066272B2, “Human homeobox gene ventx and macrophage terminal differentiation and activation, compositions and methods thereof” (priority 2011, dated 2018).

Assays:
primary monocytes = experiment: Monocyte to macrophage differentiation after siRNA transfection, surface markers by FACS; format: cell-based, human
Procedure: (A) knockdown of VentX expression in primary monocytes by RNA interference. Monocytes were transfected with siRNA against GFP or VentX through electroporation. VentX mRNA levels were determined by real time PCR at 3 days after transfection (left); VentX protein level was determined by western blotting at 4 days after transfection (right). (B) Effects of VentX knockdown on macrophage morphogenesis during M-CSF induced differentiation. Monocytes were transfected with either siGFP or siVentX and subsequently exposed to 100 ng/mL M-CSF. […] Magnification of photographs, ×200. Note: a portion of cells lost their original morphology during Wright-Giemsa staining procedure. (C) Effects of VentX knockdown on macrophage surface expression of CD71. […] Filled blue histogram represents the isotope control staining; red histogram represents monocytes transfected with siGFP; green histogram represents monocytes transfected with siVentX. (D) Bar graphs show mean+SD of 6 different experiments in (C). Paired t test was used to reveal the statistical significance. **p<0.01.
(A) Left panel: Flow cytometry analysis of indicated surface markers in monocytes transfected with siGFP or siVentX, respectively; right panel: bar graphs show the mean+SD of at least three separate experiments. *p<0.05; **p<0.01. (B) Effects of VentX knockdown on macrophage viability. Monocytes were transfected with either siGFP or siVentX and subsequently exposed to 100 ng/mL M-CSF for 3 days. Cells were then harvested and stained with PI and Annexin V and analyzed by flow cytometry. (C) Effects of VentX knockdown on phagocytosis. Monocytes were transfected with siGFP or siVentX. Phagocytosis assays were carried out as described in materials and methods. […]
Surface expression of CD71 was determined by FACS analysis at 4 days after siRNA transfection. […]
Peripheral blood mononuclear cells (PBMC) from healthy adult donors at Children's Hospital Boston were isolated by Ficoll density gradient centrifugation. […] The purity of freshly isolated CD14^+ monocytes was more than 95% as analyzed by flow cytometry. […]

activated macrophages = experiment: Detection of reactive oxygen species (ROS) and nitric oxide (NO) in activated macrophages; format: cell-based, human
Procedure: Macrophages were generated through incubation of freshly isolated monocytes with 100 ng/mL M-CSF for 4 days. These macrophages were then transfected with siGFP or siVentX, respectively, and further cultured in RPMI 1640 medium for additional 3 days. Thereafter, cells were exposed to 1 μg/mL LPS plus 20 ng/mL γ-IFN for 6 hours. (A) Surface staining of CD40, CD80, CD86 and HLA-DR and intracellular staining of TNF-α and IL1-β were analyzed by flow cytometry. (B) Secreted TNF-α, IL1-β and IL12p70 from culture supernatants were determined with ELISA kits. (C) Reactive oxygen species (ROS) from siGFP or siVentX transfected macrophages were analyzed with fluorescence microscope (left) and flow cytometry (middle). […] (D) Nitrate level from siGFP and siVentX transfected macrophages. Data represent mean+SD of three different experiments. (E) Phagocytosis of siGFP and siVentX transfected macrophage. […]
The ROS level in activated macrophages was detected with Image-iT® LIVE Green Reactive Oxygen Species Detection Kit (Invitrogen) basically following the manufacturer's instructions except that the results were analyzed by both fluorescence microscope and flow cytometry. The NO level was determined by Griess Reagent Kit for Nitrite Determination (Invitrogen) following the protocol provided by the manufacturer.

siVentX: VentX siRNA, forward 5′-UUCAGAAUCGCCGCAUGAAACACAAACGG-3′ (SEQ ID NO:4), reverse SEQ ID NO:5 (antisense CCGUUUGUGUUUCAUGCGGCGAUUCUGAA; listed as RNA, chemistry not given here)
macrophage differentiation by GM-CSF or IL3 (primary monocytes; monocytes, 100 ng/mL GM-CSF or IL3, CD71 at 4 days (FIG. 15)): blocked macrophage differentiation
expression of macrophage phenotypic markers CD64, CD40, CD86, CD11b and CD11c (primary monocytes; transfected monocytes, M-CSF, compared with siGFP transfected control cells (FIG. 3A)): significantly down-regulated
reactive oxygen species produced (activated macrophages; transfected macrophages (FIG. 8C)): significantly less
nitric oxide produced (activated macrophages; transfected macrophages (FIG. 8D)): significantly less
